Data reported in patent publication US6512130B1, “Mifepristone analogue, process for the preparation thereof and use thereof” (Council of Scientific and Industrial Research, priority 2000, dated 2003).
Several values for one entry are separate records, joined by “and”; a condition that tells them apart may be missing. Equal entries are not always repeated.

biological target: T1, rabbit uterine progesterone receptor (Oryctolagus cuniculus, UniProt P06186); experiment: Competitive binding assay for progesterone receptors using rabbit uterine cytosol and 3H-progesterone; details: rabbit uterine cytosol, 3H-progesterone 8×10^−9 M, 1 μM unlabelled cortisol, 4° C. 20 hours; progesterone taken as 100
T1 construct: performed using rabbit uterine cytosol and 3H progesterone (radioligand); from tissue; host or cells: uterus of immature, estradiol-dipropionate-primed rabbits; 105000 x g cytosol treated with dextran-coated charcoal
T1 sequence (P06186 1-930): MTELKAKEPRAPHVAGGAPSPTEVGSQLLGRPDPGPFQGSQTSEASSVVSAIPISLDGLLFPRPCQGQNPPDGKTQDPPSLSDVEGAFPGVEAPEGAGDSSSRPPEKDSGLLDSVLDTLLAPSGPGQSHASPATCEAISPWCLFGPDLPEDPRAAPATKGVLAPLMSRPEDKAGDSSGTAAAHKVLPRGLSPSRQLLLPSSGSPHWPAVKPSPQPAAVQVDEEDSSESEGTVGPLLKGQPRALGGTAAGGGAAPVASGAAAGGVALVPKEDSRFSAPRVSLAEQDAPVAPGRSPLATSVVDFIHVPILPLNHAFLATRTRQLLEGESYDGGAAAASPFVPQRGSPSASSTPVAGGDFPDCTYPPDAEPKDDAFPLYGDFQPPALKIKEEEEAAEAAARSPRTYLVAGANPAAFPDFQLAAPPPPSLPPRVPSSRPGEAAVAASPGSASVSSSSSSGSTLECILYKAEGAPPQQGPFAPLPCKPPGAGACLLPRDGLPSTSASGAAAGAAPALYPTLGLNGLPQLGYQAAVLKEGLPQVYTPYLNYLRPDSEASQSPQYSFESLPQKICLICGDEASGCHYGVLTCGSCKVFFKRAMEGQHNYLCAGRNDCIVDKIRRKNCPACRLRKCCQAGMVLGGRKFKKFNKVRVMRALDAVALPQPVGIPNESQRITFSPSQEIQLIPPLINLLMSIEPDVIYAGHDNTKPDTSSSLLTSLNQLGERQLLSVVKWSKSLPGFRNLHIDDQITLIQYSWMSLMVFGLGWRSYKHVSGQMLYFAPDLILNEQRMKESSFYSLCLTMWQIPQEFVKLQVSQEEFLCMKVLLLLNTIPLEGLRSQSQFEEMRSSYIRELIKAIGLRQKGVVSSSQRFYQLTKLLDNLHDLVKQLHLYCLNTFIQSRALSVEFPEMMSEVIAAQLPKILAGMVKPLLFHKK
Protocol: Crude products 3, 4, and 5 may be purified by column chromatography using silica gel, basic alumina, acidic alumina or neutral alumina as adsorbants and ethyl acetate, ethyl acetate-benzene, or ethyl acetate-chloroform as solvent systems. […] The competitive binding assay for progesterone receptors (PR) was performed using rabbit uterine cytosol and 3H progesterone (radioligand) in the presence of unlabelled cortisol at 4° C. Competitor dilutions were prepared in DMF:Tris buffer pH 7.4 (1:1). […] The activity of progesterone is taken as 100.
Animals. Immature rabbits weighing about 1 kg were administered 100 μg estradioldipropionate intramuscularly for four days and were sacrificed on the fifth day. Uteri were removed, washed with ice cold saline and weighed. Uteri were homogenised in four volumes of 50 mM Tris buffer, pH 7.4 containing 1 mM EDTA, 12 mM monothioglycerol and 10% glycerol (v/v) at 2° C. using polytron PT-10 homoniser.
The homogenate was ultracentrifuged at 105000×g for 60 minutes at 4° C. The resultant supernatant (cytosol) was treated with equal volume of dextran coated charcoal (0.5% charcoal and 0.05% dextran in TEMG buffer) for 30 minutes with occasional stirring at 0° C. DCC treated cytosol was used for binding assay.
Prior to the assay, cytosol was Incubated with 1 μM unlabelled cortisol for 30 minutes at 0° C. Aliquots of the cytosol were incubated at 4° C. for 20 hours with a constant concentration of ^3H-progesterone (8×10^−9 M) in the absence or presence of increasing concentration (1 to 10000×10^−9 M) of either unlabelled progesteroine or test compounds. ^3H-progesterone bound was measured for each incubate by the technique of charcoal adsorption.
Calculation of relative binding affinity of test compounds was done by plotting the curves between the percentage of bound titrated progesterone as a function of the iogarithm of the unlabelled progesterone concentration and as a function of logarithm of the concentration of unlabelled test compounds (FIGS. 1 and 2). […]

SMILES	Relative binding affinity (%)
CC(C)C#C[C@]1(O)CCC2C3CCC4=CC(=O)CCC4=C3C(c3ccc(N(C)C)cc3)C[C@@]21C (stereo partly drawn) [Compound 1, 11β-[4-(N,N-dimethylamino)phenyl]-17β-hydroxy-17α-(3-methyl-1-butynyl)-estra-4,9-dien-3-one]	174.65%
CC#C[C@]1(O)CC[C@H]2[C@@H]3CCC4=CC(=O)CCC4=C3[C@@H](c3ccc(N(C)C)cc3)C[C@@]21C [Compound 6, Mifepristone]	103% and 103.44%
CC(=O)[C@H]1CC[C@H]2[C@@H]3CCC4=CC(=O)CC[C@]4(C)[C@H]3CC[C@]12C [Progesterone]	100%
